Paper PMC7932537, “Quantitative profiling of protease specificity” (PLoS Computational Biology, 2021)

Key:
[1] = test system: MMP-9; test: N-terminomic (TMT) analysis of MMP-treated HEK293 secretome: isotopic enrichment of novel N-termini; type: biochemical, human; details: for isotopic enrichment (log2(ratio)) (acc.to MMP9): HEK293 proteins; for isotopic enrichment (log2(ratio)): MMP9 cleavages in HEK293 cell proteins, determined by LC-MS/MS, log2(ratio) range (>3σ, 2σ-3σ, 1σ-2σ)
Experimental: (§1) This was done to achieve a reasonable compromise between the false positive and false negative rates based on the statistical model developed by the authors. […] (See Methods for details).
(§2) HEK293 cells were seeded in 150-mm tissue culture dishes (Corning) and grown to confluence. The confluent cultures were washed with PBS several times to remove serum proteins and kept in serum-free DMEM supplemented with 1 μM GM6001 for 72 hours at 37 C, 5% CO2. The conditioned media was centrifuged at 10,000 x g for 30 minutes at 4 C and concentrated ~100-fold using Centricon Plus-70 (AMD Millipore) 3-kDa m.w. cut-off ultrafilter, and the buffer was exchanged to 50 mM HEPES pH 7.0 containing 150 mM NaCl and 10 mM CaCl2 (Reaction Buffer) using a PD-10 desalting column (GE Healthcare). Aliquots containing 240 μg total protein were incubated at 37 C in the presence of 750 nM MMP2 or 9 or the Reaction Buffer alone for 2 hours. Each reaction was carried out in duplicate. The reactions were stopped by addition of 20 mM EDTA and subjected to denaturation/reduction (4M Urea and 10 mM TCEP, 1 h, 22°C) and alkylation (20 mM iodoacetamide, 30 min, 22°C, in dark). […] The TMT-labeled samples were pooled together, and subjected to TCA precipitation (20% TCA, 16 h, 4°C). Each pellet was washed with -20°C acetone, recovered in 50 mM Tris-HCl pH 8.0, and then digested with trypsin/Lys-C (Promega) for 16 h at 37°C. Digestions were stopped with 0.2% TFA and centrifuged to remove insoluble material. The supernatants were then desalted using Sep-Pak C18 cartridge (50 mg), and then lyophilized.
(§3) Dried pooled sample was reconstituted in 20 mM ammonium formate pH ~10 and fractionated using a Waters Acquity BEH C18 column (2.1x 15 cm, 1.7 μm pore size) mounted on an M-Class Ultra Performance Liquid Chromatography (UPLC) system (Waters). […] A total of 32 fractions were collected and pooled in a non-contiguous manner into 16 total fractions. Pooled fractions were dried to completeness in a SpeedVac concentrator prior to mass spectrometry analysis.
(§4) Dried peptide fractions were reconstituted with 2% ACN-0.1% FA and analyzed by LC-MS/MS using a Proxeon EASY nanoLC system (Thermo Fisher Scientific) coupled to a Q-Exactive Plus mass spectrometer (Thermo Fisher Scientific). […] The mass spectrometer was operated in positive data-dependent acquisition mode. MS1 spectra were measured with a resolution of 70,000 (AGC target: 1e6; mass range: 350–1700 m/z).
(§5) The false discovery rate (FDR) filter for spectrum and protein identification was set to 1%. Carbamidomethylation of cysteines was searched as a fixed modification, while oxidation of methionines and N-terminal acetylation were searched as variable modifications. Enzyme was set to trypsin in a semispecific mode and a maximum of two missed cleavages was allowed for searching. To obtain quantification of the TMT-labeled N-termini, two independent searches were performed–one with TMT10plex MS2 N-terminal reporter quantification and the other for quantification of N-terminal and lysine sidechain.

[2] = test system: MMP-2; test: as above; type: biochemical, human; details: for isotopic enrichment (log2(ratio)): MMP2 cleavages in HEK293 cell proteins, determined by LC-MS/MS, novel N-termini, sections log2(ratio) >3σ, 2σ-3σ, 1σ-2σ, RP above 4.5
Experimental: as §1, §2, §3, §4, §5

[3] = MMP9, common set of MMP2-9 selectome, LC-MS/MS
[4] = MMP2 cleaved HEK293 proteins, common set of MMP2-9 selectome, LC-MS/MS
[5] = MS detected cleavage sequence, common MMP2-9 selectome
[6] = MS detected cleavage sequence, HEK293 proteins, common MMP2-9 selectome
[7] = MS detected cleavage sequence, unique part of MMP2 selectome
[8] = MS detected cleavage sequence, HEK293 proteins, unique part of MMP2 selectome

Substance	isotopic enrichment (log2(ratio)) (acc.to MMP9) [1, 3]	isotopic enrichment (log2(ratio)) [2]	isotopic enrichment (log2(ratio)) (acc.to MMP2) [2, 4]	isotopic enrichment (log2(ratio)) [1]	isotopic enrichment (log2(ratio)) (acc.to MMP9) [1, 5]	isotopic enrichment (log2(ratio)) (acc.to MMP2) [2, 6]	isotopic enrichment (log2(ratio)) (acc.to MMP9) [1, 7]	isotopic enrichment (log2(ratio)) (acc.to MMP2) [2, 8]
ADIAF-LIDGSF	0.8797	1.124 log2(ratio)	1.124	–	–	–	–	–
AGAAA-LSSASS	3.911	–	2.491	3.911	3.911 log2(ratio)	2.491 log2(ratio)	–	–
AGARG-IQGPQG	–	–	–	1.521	1.521 log2(ratio)	0.8156 log2(ratio)	–	–
APPAA-VAAVAG	–	–	–	1.731	1.731 log2(ratio)	2.4957 log2(ratio)	–	–
ARPNS-MVVEHP	3.297	–	2.409	3.297	3.297 log2(ratio)	2.409 log2(ratio)	–	–
DAPRA-VFPSIV	1.811	–	1.669	1.811	1.811 log2(ratio)	1.669 log2(ratio)	–	–
DMAAA-MKAVTE	1.328	1.766 log2(ratio)	1.766	–	–	–	–	–
DMIDN-LLSPDL	–	–	–	–	–	–	1.029 log2(ratio)	1.245 log2(ratio)
EAPRP-YSKQVS	1.531	–	1.239	1.531	1.531 log2(ratio)	1.239 log2(ratio)	–	–
EEPLN-VGSVAA	3.642	–	2.637	3.642	3.642 log2(ratio)	2.637 log2(ratio)	–	–
EGPYS-ISVLYG	0.9411	1.176 log2(ratio)	1.176	–	–	–	–	–
EHPVL-LTEAPL	–	–	–	3.462	3.462 log2(ratio)	1.599 log2(ratio)	–	–
ETAIN-ITTYPD	2.536	–	1.84	2.536	2.536 log2(ratio)	1.84 log2(ratio)	–	–
FHPEQ-LITGKE	2.628	–	2.036	2.628	2.628 log2(ratio)	2.036 log2(ratio)	–	–
FNPLS-LEELGS	–	–	–	1.82	1.82 log2(ratio)	0.84 log2(ratio)	–	–
FSLFG-LGGEPG	2.104	–	1.417	2.104	2.104 log2(ratio)	1.417 log2(ratio)	–	–
FSVSS-LAEGSV	1.22	1.257 log2(ratio)	1.257	–	–	–	–	–
GEVQA-MLGQST	–	–	–	1.4957	1.4957 log2(ratio)	0.5656 log2(ratio)	–	–
GFGRG-LSDKKS	2.021	–	1.9486	2.021	2.021 log2(ratio)	1.9486 log2(ratio)	–	–
GFLAW-LYNESP	1.774	–	2.43	1.774	1.774 log2(ratio)	2.43 log2(ratio)	–	–
GGGSA-LAGGAG	–	–	–	–	–	–	2.488 log2(ratio)	3.0018 log2(ratio)
GLPRE-LAEAVA	–	–	–	2.272	2.272 log2(ratio)	0.7485 log2(ratio)	–	–
GMPGE-ISEHEG	2.131	–	2.198	2.131	2.131 log2(ratio)	2.198 log2(ratio)	–	–
GRSAP-LAAGCP	–	–	–	–	–	–	3.246 log2(ratio)	3.5097 log2(ratio)
GRTLG-LYGKDQ	3.7845	–	2.467	3.7845	3.7845 log2(ratio)	2.467 log2(ratio)	–	–
GSPDA-LQNPCY	–	–	–	3.536	3.536 log2(ratio)	0.926 log2(ratio)	–	–
GYIGT-YCGQPV	–	–	–	–	–	–	2.478 log2(ratio)	2.548 log2(ratio)
HLNRG-FHQEVF	–	–	–	–	–	–	1.782 log2(ratio)	1.531 log2(ratio)
HLVRN-IQLEQP	3.981	–	3.263	3.981	3.981 log2(ratio)	3.263 log2(ratio)	–	–
